Experimental findings from patent US12653796B2, “Compounds for use (in particular RIPA-56) in the prevention and/or treatment of non-alcoholic fatty liver disease” (SORBONNE UNIVERSITE, priority 2019, dated 2026) are described below.

The subject of this test is primary human steatotic hepatocytes. Put plainly: Fat depletion in primary human hepatocytes isolated from steatotic livers of patients with NAFLD. It counts as cell-based. The note with it: 20 μM, 24 h. How it is done: FIG. 7. RIPA-56 treatment induces fat depletion in primary human hepatocytes. Primary human hepatocytes were isolated from steatotic human livers of patients with NAFLD (n=5) (A-C) or from non-steatotic human livers and incubated with free fatty acids to induce steatosis or without (W/O) (n=5) (D-G), and treated with RIPA-56 (20 μM) or DMSO (vehicle) for 24 h. (A, D) Representative Oil Red-O and DAPI images; (B, E) Quantification of Oil Red-O staining normalized for the number of DAPI-stained nuclei; (C, F) Quantification of intracellular triglycerides normalized to protein content; (G) mRNA levels of CPT1A, MTTP and APOB100 were assessed by RT-qPCR, and shown relative to DMSO-treated hepatocytes. Results are shown as mean±SEM; n.s., not significant; *p<0.05; **p<0.01; scale bars, 100 μm. […]
The liver fragment was initially perfused with a prewarmed (37° C.) calcium-free buffer supplemented with 5 mmol/L ethylene glycol tetra-acetic acid (Sigma) followed by perfusion with a prewarmed (37° C.) buffer containing 6 mmol/L calcium (CaCl2) and collagenase 0.05% ([…]) (Sigma). […] The count of viable cells was determined using trypan blue exclusion. […]
Intracellular lipids were stained by means of Oil Red-O (Sigma). […] Fluorescence images were viewed with IX83 Olympus microscope, acquired with Cell-Sens V1.6 and analyzed with FIJI software. […]

Each structure is given as a SMILES string.

As for `CCC(C)(C)C(=O)N(O)Cc1ccccc1` [RIPA-56, N-Benzyl-N-hydroxy-2,2-dimethylbutanamide], the “intracellular lipid droplets (Oil Red-O)” value is recorded as “marked decrease” and the intracellular triglyceride content entry was “marked decrease”.
